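Grown in 96-well plates, cells were treated for 48 hours with each compound at five concentrations. Insufficient inhibition: endpoint recorded as highest concentration tested. Abbreviation: GI50, concentration required for 50% inhibition of growth.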 Active and inactive are the calls of the source. No stated cut-off is given here; in the data, active = GI50 up to about 1.1 µM and inactive = higher.
Assays:
Test in all cases: growth of human tumour cells (NCI), 48 h
SK-MEL-2 = system: SK-MEL-2
SK-MEL-28 = system: SK-MEL-28
UACC-257 = system: UACC-257
SF-268 = system: SF-268
SNB-75 = system: SNB-75
NCI-H522 = system: NCI-H522
SK-MEL-5 = system: SK-MEL-5
COLO 205 = system: COLO 205
U-251 = system: U-251
CCRF-CEM = system: CCRF-CEM
MOLT-4 = system: MOLT-4
SF-295 = system: SF-295
Malme-3M = system: Malme-3M
EKVX = system: EKVX
SF-539 = system: SF-539
A498 = system: A498

Measured: GI50

C/C(CC(=O)Nc1ccc(C)c(C)c1)=N\NC(N)=S
inactive: SK-MEL-2 > 100 µM | SK-MEL-28 > 100 µM | UACC-257 > 100 µM | SF-268 > 100 µM | SNB-75 > 100 µM | NCI-H522 > 100 µM | SK-MEL-5 > 100 µM | COLO 205 > 100 µM | U-251 > 100 µM | CCRF-CEM > 100 µM | MOLT-4 > 100 µM | SF-295 > 100 µM | Malme-3M > 100 µM | EKVX > 100 µM | SF-539 > 100 µM

Cc1ccc(S(=O)(=O)c2ccccc2[N+](=O)[O-])cc1
inactive: SK-MEL-2 > 100 µM | SK-MEL-28 > 100 µM | UACC-257 72.6 µM | SNB-75 > 100 µM | SK-MEL-5 52.1 µM | U-251 > 100 µM | CCRF-CEM > 100 µM | MOLT-4 66.7 µM | SF-295 > 100 µM | Malme-3M 85.1 µM | EKVX > 100 µM | A498 > 100 µM | SF-539 > 100 µM

C=C(C(=C)N1N=NC2C3CCC(C3)C21)N1N=NC2C3CCC(C3)C21 (stereo not given)
inactive: SK-MEL-28 > 100 µM | UACC-257 > 100 µM | SF-268 > 100 µM | SNB-75 55.1 µM | NCI-H522 66.5 µM | SK-MEL-5 > 100 µM | COLO 205 > 100 µM | U-251 > 100 µM | CCRF-CEM 24.9 µM | MOLT-4 41.1 µM | SF-295 > 100 µM | Malme-3M > 100 µM | SF-539 > 100 µM

O=C1OC(O)C(Oc2ccc(Cl)cc2)=C1Cl (stereo not given)
inactive: SK-MEL-2 > 100 µM | SK-MEL-28 > 100 µM | UACC-257 > 100 µM | SF-268 > 100 µM | SNB-75 > 100 µM | NCI-H522 > 100 µM | COLO 205 > 100 µM | U-251 > 100 µM | CCRF-CEM > 100 µM | MOLT-4 > 100 µM | SF-295 > 100 µM | Malme-3M > 100 µM | EKVX > 100 µM | A498 > 100 µM | SF-539 > 100 µM

CCOc1ccc(NC(=O)CC2SC(Nc3ccc(C)cc3)=NC2=O)cc1 (stereo not given)
inactive: SK-MEL-28 > 100 µM | UACC-257 > 100 µM | SF-268 > 100 µM | SNB-75 > 100 µM | NCI-H522 > 100 µM | SK-MEL-5 > 100 µM | COLO 205 > 100 µM | U-251 > 100 µM | CCRF-CEM 29.2 µM | MOLT-4 35.2 µM | SF-295 > 100 µM | Malme-3M > 100 µM | EKVX > 100 µM | A498 > 100 µM | SF-539 > 100 µM

C/C(=N\NS(=O)(=O)c1ccccc1)c1ccc(Cl)c(Cl)c1
inactive: SK-MEL-2 > 100 µM | SK-MEL-28 63.4 µM | UACC-257 50 µM | SF-268 > 100 µM | SNB-75 50 µM | SK-MEL-5 42.5 µM | COLO 205 26.2 µM | U-251 37.2 µM | CCRF-CEM > 100 µM | MOLT-4 47.8 µM | SF-295 46.3 µM | Malme-3M 68.2 µM | EKVX 67.3 µM | A498 41.8 µM | SF-539 43 µM

COC1CC(n2cnc3c(N)ncnc32)OC1CO (stereo not given)
inactive: SK-MEL-2 > 100 µM | SK-MEL-28 > 100 µM | UACC-257 > 100 µM | SF-268 > 100 µM | SNB-75 > 100 µM | NCI-H522 > 100 µM | SK-MEL-5 > 100 µM | COLO 205 > 100 µM | U-251 > 100 µM | CCRF-CEM 56 µM | MOLT-4 > 100 µM | SF-295 > 100 µM | Malme-3M > 100 µM | SF-539 > 100 µM

COc1ccc(C2=NNC(=O)OC2c2ccccc2)cc1 (stereo not given)
inactive: SK-MEL-2 36.1 µM | SK-MEL-28 > 100 µM | UACC-257 28.9 µM | SF-268 72.6 µM | SNB-75 28.1 µM | COLO 205 78.2 µM | U-251 > 100 µM | CCRF-CEM 48.3 µM | MOLT-4 43.8 µM | SF-295 22.4 µM | Malme-3M 52.8 µM | EKVX 76 µM | A498 49.4 µM | SF-539 > 100 µM

Clc1ccccc1C1=NN(c2ccccc2)C2c3cc(Br)ccc3OCC12 (stereo not given)
inactive: SK-MEL-2 > 100 µM | SK-MEL-28 > 100 µM | UACC-257 > 100 µM | SF-268 > 100 µM | SNB-75 > 100 µM | NCI-H522 > 100 µM | COLO 205 > 100 µM | U-251 > 100 µM | CCRF-CEM > 100 µM | MOLT-4 96.4 µM | SF-295 > 100 µM | Malme-3M > 100 µM | EKVX 89.9 µM | A498 > 100 µM | SF-539 > 100 µM

CCOC(=O)NC(=O)c1cn(C2OC(CO)C(O)C2O)c(=O)[nH]c1=O (stereo not given)
inactive: SK-MEL-2 > 100 µM | SK-MEL-28 > 100 µM | UACC-257 > 100 µM | SF-268 > 100 µM | SNB-75 > 100 µM | NCI-H522 > 100 µM | SK-MEL-5 > 100 µM | U-251 > 100 µM | MOLT-4 > 100 µM | SF-295 > 100 µM | Malme-3M > 100 µM | EKVX > 100 µM | A498 > 100 µM | SF-539 > 100 µM

CNS(=O)(=O)NN(C)S(=O)(=O)c1ccc2ccccc2c1
inactive: SK-MEL-2 > 100 µM | UACC-257 > 100 µM | SNB-75 > 100 µM | NCI-H522 > 100 µM | SK-MEL-5 > 100 µM | COLO 205 > 100 µM | U-251 > 100 µM | CCRF-CEM > 100 µM | MOLT-4 > 100 µM | SF-295 > 100 µM | Malme-3M > 100 µM | EKVX > 100 µM | A498 > 100 µM | SF-539 > 100 µM

O=C1c2cccc(O)c2C(=O)c2c(O)cccc21 [DANTHRON]
inactive: SK-MEL-2 > 100 µM | SK-MEL-28 > 100 µM | UACC-257 85.1 µM | SF-268 > 100 µM | SNB-75 > 100 µM | NCI-H522 62.7 µM | COLO 205 22 µM | U-251 69.3 µM | CCRF-CEM > 100 µM | MOLT-4 40.1 µM | SF-295 55.6 µM | EKVX 98.9 µM | A498 17.9 µM | SF-539 53.6 µM

CN(/C(=N\O)c1ccccc1)c1ccccc1
inactive: SK-MEL-2 27.8 µM | UACC-257 38.6 µM | SF-268 28.1 µM | SNB-75 13.5 µM | NCI-H522 18 µM | COLO 205 95.9 µM | U-251 17.2 µM | SF-295 21 µM | Malme-3M 39.1 µM | EKVX 23.3 µM | SF-539 22.6 µM

Fc1ccc2c(c1)SC1Oc3ccccc3-c3c1c-2nn3-c1ccccc1 (stereo not given)
inactive: SK-MEL-2 > 100 µM | SK-MEL-28 > 100 µM | UACC-257 > 100 µM | SF-268 > 100 µM | SNB-75 86.7 µM | NCI-H522 37.9 µM | COLO 205 > 100 µM | U-251 > 100 µM | CCRF-CEM > 100 µM | MOLT-4 > 100 µM | SF-295 > 100 µM | Malme-3M > 100 µM | EKVX > 100 µM | A498 > 100 µM | SF-539 > 100 µM

Cc1[nH]c2ccccc2c1C1Cc2ccccc2N1C(=O)/C=C/C=C/c1ccccc1 (stereo not given)
inactive: SK-MEL-2 > 100 µM | SK-MEL-28 > 100 µM | UACC-257 33 µM | SNB-75 > 100 µM | NCI-H522 > 100 µM | SK-MEL-5 > 100 µM | COLO 205 > 100 µM | U-251 > 100 µM | CCRF-CEM 58.2 µM | MOLT-4 12.7 µM | SF-295 > 100 µM | Malme-3M > 100 µM | EKVX > 100 µM | A498 > 100 µM | SF-539 > 100 µM

CCCSS[C@H]1NC(=O)[C@H]1NC(=O)COc1ccccc1
inactive: SK-MEL-2 17.9 µM | SK-MEL-28 16.6 µM | UACC-257 14.4 µM | SF-268 20 µM | SNB-75 21.1 µM | SK-MEL-5 22.8 µM | COLO 205 12.3 µM | U-251 17.7 µM | CCRF-CEM 3.85 µM | MOLT-4 1.28 µM | SF-295 41.9 µM | Malme-3M 13.8 µM | EKVX 20.6 µM | A498 24.8 µM | SF-539 15.3 µM

O=C(CC1(O)C(=O)Nc2ccc(Br)cc21)c1ccc(Cl)cc1Cl (stereo not given)
inactive: SK-MEL-2 31.7 µM | SK-MEL-28 44 µM | UACC-257 30.9 µM | SF-268 50.1 µM | SNB-75 38 µM | NCI-H522 25.1 µM | COLO 205 65.5 µM | U-251 49.2 µM | CCRF-CEM 20.2 µM | MOLT-4 26.3 µM | SF-295 64.7 µM | Malme-3M 63.7 µM | EKVX > 100 µM | A498 > 100 µM | SF-539 45.5 µM

Nc1ncnc2c1N=CN(Oc1ccccc1)N2
inactive: SK-MEL-2 > 100 µM | SK-MEL-28 > 100 µM | UACC-257 > 100 µM | SNB-75 14 µM | SK-MEL-5 > 100 µM | COLO 205 > 100 µM | U-251 > 100 µM | MOLT-4 > 100 µM | SF-295 > 100 µM | Malme-3M 18.3 µM | EKVX > 100 µM | SF-539 > 100 µM

COc1ccc2cc3nc(O)cc(O)c3cc2c1OC
inactive: SK-MEL-2 > 100 µM | SK-MEL-28 > 100 µM | UACC-257 > 100 µM | SF-268 > 100 µM | SNB-75 > 100 µM | U-251 > 100 µM | CCRF-CEM > 100 µM | MOLT-4 > 100 µM | SF-295 > 100 µM | Malme-3M > 100 µM | EKVX > 100 µM | A498 > 100 µM | SF-539 > 100 µM

CC(=O)CC(=O)ON(C)C(C)=O
inactive: SK-MEL-28 > 100 µM | UACC-257 7.69 µM | SF-268 > 100 µM | SNB-75 > 100 µM | NCI-H522 > 100 µM | SK-MEL-5 > 100 µM | COLO 205 > 100 µM | U-251 > 100 µM | CCRF-CEM > 100 µM | MOLT-4 > 100 µM | SF-295 > 100 µM | Malme-3M > 100 µM | SF-539 > 100 µM
